Data reported in patent publication US9719191B2, “Methods for identifying ligands that target nucleic acid molecules and nucleic acid structural motifs” (The Research Foundation for The State University of New York, priority 2006, dated 2017).
Where two headings read alike, the source gives them in different places. Each block holds one compound with its values, some of them ahead of it.

Columns and labels:
[1] = test system: oligonucleotide mimic of the bacterial rRNA A-site; conditions: 6′ NH2 acetylated; cited from earlier work
[2] = test system: RNA internal loop library 22; conditions: chase oligonucleotides 23-26 in excess
[3] = molecular target: chase oligonucleotide 24 (GAAA hairpin mimic); experiment: Fluorescence-based direct binding assay with 21-FL; conditions: no change in fluorescence intensity up to 5 μM
tRNAphe = experiment: Fluorescence-based direct binding assay with 21-FL
[4] = molecular target: DNA chase oligonucleotides 25+26; experiment: Fluorescence-based direct binding assay with 21-FL; conditions: no change in fluorescence intensity up to 5 μM
[5] = molecular target: pool of RNAs harvested from position 2+; experiment: Fluorescence-based direct binding assay with 21-FL; conditions: lower ligand loading position 2+
[6] = molecular target: RNA internal loop library 22; experiment: Fluorescence-based direct binding assay with 21-FL; conditions: entire library
IL 7 = conditions: RNase A and S1 nuclease, compound 0, 0.1, 1, 10, 100 μM
Protocol: (§1) The binding site of 2 was determined by enzymatic probing of IL 7 and R4 in the presence or absence of 2 with RNase A and S1 nuclease.
(§2) The binding site(s) of 2 was determined using a nuclease protection assay. For RNase A mapping experiments, radiolabeled oligonucleotide was annealed as described above. After slow cooling, serially diluted concentrations of 2 were added, and the resulting solution was allowed to equilibrate for 30 min at RT. Approximately 6 μunits of RNase A were added, and the reaction was allowed to proceed for 10 min. The reaction was quenched by addition of an equal volume of stop buffer, and the products were separated on a denaturing 17% polyacrylamide gel.
(§3) For S1 nuclease mapping experiments, the radiolabeled oligonucleotide was annealed as described except the buffer used was 50 mM sodium acetate (pH 4.5), 280 mM NaCl, and 4.5 mM ZnSO4. The solution was allowed to equilibrate for 30 min at RT after the addition of serially diluted concentrations of 2, and then 10 units of S1 were added. The reaction was quenched after 10 min at RT, and the products were separated on a denaturing 17% polyacrylamide gel.

hairpin cassette R4 = conditions: RNase A and S1 nuclease, compound 0, 0.1, 1, 10, 100 μM
Protocol: as §1, §2, §3

IL 1 = conditions: in presence of 2
Protocol: as §1

IL 16 = conditions: in presence of 2
Protocol: as §1

empty cassette RNA 27 = experiment: Fluorescence-based direct binding assay with 21-FL
[7] = molecular target: chase oligonucleotide 23 (stem mimic duplex); experiment: Fluorescence-based direct binding assay with 21-FL; conditions: no change in fluorescence intensity up to 5 μM
[8] = molecular target: pool of RNAs harvested from position 1+; experiment: Fluorescence-based direct binding assay with 21-FL; conditions: higher ligand loading position 1+
[9] = molecular target: pool of RNAs from spot 2+; experiment: Competitive binding assay against 21-FL; conditions: for Kd: competition with 10 nM 21-FL
Protocol: (§4) To determine if selected loops have aminoglycoside preferences, the binding of five aminoglycosides, 21, kanamycin A, kanamycin B, tobramycin, and neamine (FIG. 7) to the pool of RNAs from spot 2+ (FIG. 10C) was probed using a competitive binding assay. […] We also tested a single RNA sequence identified to bind 21, IL 34, in the same manner.
(§5) A solution containing 75 nM IL 34 was refolded in 1× hybridization buffer+40 μg/mL BSA at 60° C. for 5 min. After slow cooling on the benchtop, 21-FL was added to a final concentration of 10 nM. The competing, unlabeled aminoglycoside was then added, and the resulting solution was serially diluted into 1× hybridization buffer+40 μg/mL BSA+10 nM 21-FL containing 75 nM IL 34. The solutions were equilibrated for 30 min at RT, and the fluorescence intensities were measured on a Bio-Tek HT fluorescence plate reader.

IL 34 = experiment: Competitive binding assay against 21-FL; conditions: competition with 10 nM 21-FL, 75 nM IL 34
Protocol: as §4, §5

[10] = test system: RNA 3×3 internal loop library (R1); experiment: Resin-based selection of RNA internal loops with immobilized kanamycin A; format: binding; conditions: based on initial radioactivity eluted with kanamycin A; about 150 members
Protocol: Selections were completed by incubating a solution that contained 5′ end ^32P-labeled R1 in buffer with resin-immobilized kanamycin A. In addition to R1, a variety of other oligonucleotides were added to the incubation solution (R2-R4, D1, D2). […] The small number may be due to the manner in which the ligand was immobilized onto the resin (impairs the 6′ amino group from forming stabilizing contacts with RNA).
Each of the oligonucleotides was refolded separately in Hybridization Buffer (“HB”) containing 8 mM […] pH 7.0, 1 mM EDTA, and 185 mM NaCl by heating for 5 min at 65° C. and then cooling to RT on the benchtop. Oligonucleotides were then transferred to 4° C. and mixed together. Before the oligonucleotides were hybridized with the resin, 200 μg of BSA was added to the samples. Each selection experiment was completed with 10 picomoles of 5′-end labeled R1 and 20-fold higher concentration of each control oligonucleotide (R2-R4, D1, D2) over the concentration of R1.
A 100 μL aliquot of resin slurry (10 μL of resin) was placed into a 2.5 mL BioRad column and washed 3× with 1 mL of 4° C. HB. […] At this stage, liquid scintillation counting was used to ensure that only background radioactivity was being eluted from the column. […]

[11] = molecular target: 1×1 CC internal loop derived from the untranslated region in thymidylate synthase mRNA; conditions: 1 mM MgCl2 and CaCl2, 150 mM NaCl, 5 mM KCl, 20 mM HEPES (pH 7.5); read-out: dissociation constant; cited from earlier work
[12] = test system: immobilized 6′-N-5-hexynoate kanamycin A (2) / radiolabeled IL 7; experiment: Array-based competitive binding assay: competitor RNA against trace 32P-labeled IL 7 on immobilized 2; conditions: for IC50: read-out: IC50 (concentration of competitor that inhibited 50% of the binding of radioactively labeled IL 7), competitor RNA, immobilized 2 in microwells, 30 min at RT
Source text: Typically microarray experiments can be used to probe the binding of a variety of small molecules to a single or a few analytes at once. In order to increase the number of conditions that can be probed on a single array, we affixed a silicon gasket that created 50 microwells on the surface of each chip (FIG. 5A). These microwells converted the array into a miniaturized 50-well plate that is easily functionalized to display kanamycin. Compound 2 was immobilized in each microwell at a constant concentration. Binding experiments were completed by delivering 10 μL of a solution containing serially diluted concentrations of the internal loop of interest and trace 5′end ^32P labeled IL 7 into each microwell. Dose response curves were constructed and fit to determine the concentration of competitor that inhibited 50% of the binding of the radioactively labeled RNA (FIG. 3, FIG. 5B, and FIG. 5C). FIG. 5B is a representative autoradiogram for binding selected RNAs relative to binding of control oligonucleotides R2, R3, D1 and D2, and R4, the cassette without an internal loop.
In order to determine which concentration of 2 was optimal for competitive binding assays, serially diluted 2 was applied to the chip surface and allowed to react for 2 h at RT inside the microwell of a silicon gasket (GRACE Biolabs, CWCS 50R-1.0, C-24780) (FIG. 5A). Each of the wells was washed twice with water, and the slide was dried in air. The 5′ end ^32P radiolabeled IL 7 was annealed in 1×HB+40 μg/mL of BSA at 60° C. for 5 min and allowed to slow cool on the benchtop for 10 min. It is important to note that the hybridization buffer contains 1 mM EDTA, or 50 equivalents compared to the amount of Cu^2+ used for the click reaction. […] The annealed RNA oligonucleotide was hybridized with the chip surface for 30 min at RT. […]
IC50's were determined by incubating serially diluted competitor RNA and trace radiolabeled IL 7 in microwells formed using a silicon gasket. […] The data were quantified using Bio-Rad's QuantityOne software, and the IC50's were determined using SigmaPlot's four-parameter logistical curve fit.

[13] = listed as 6′ hexynoate kanamycin A

Compound: CC(=O)NCC1OC(OC2C(N)CC(N)C(OC3OC(CO)C(O)C(N)C3O)C2O)C(O)C(O)C1O (stereo not drawn) [6′ acetylated kanamycin A]
reduction in binding relative to the parent aminoglycoside [1]: several orders of magnitude

binding of library members on the array [2]: concentration-dependent binding
Kd [3]: > 5000 nM
Kd (tRNAphe): 700 nM
Kd [4]: > 5000 nM
Kd [5]: 11 nM
Kd [6]: 280 nM
Kd (empty cassette RNA 27): 1300 nM
Kd [7]: > 5000 nM
Kd [8]: 65 nM
Kd [9]: 12 nM
Kd (IL 34; read-out: Kd): 7 nM
Compound: C#CCCCC(=O)NC[C@@H]1O[C@@H](O[C@H]2[C@H](O)[C@@H](O[C@@H]3O[C@@H](CO)[C@H](O)[C@@H](N)[C@@H]3O)[C@H](N)C[C@@H]2N)[C@@H](O)[C@H](O)[C@H]1O [Compound 21, 6′-N-5-hexynoate kanamycin A]
nucleotides protected from cleavage (IL 7; listed as 2): only nucleotides in the loop and the surrounding base pairs in IL 7 are protected from cleavage
nucleotides protected from cleavage (IL 7; [13]): occurs only in the randomized regions
nucleotides protected from cleavage (hairpin cassette R4; listed as 2): No nucleotides in the cassette R4 are protected
nucleotides protected from cleavage (hairpin cassette R4; [13]): no nucleotides are protected from modification
DEPC modification of loop nucleotides (IL 1): decreased modification
DEPC modification of loop nucleotides (IL 16): decreased modification

Kd [9]: 9 nM
Kd (IL 34; read-out: Kd): 5 nM
Compound: NC[C@H]1O[C@H](O[C@H]2[C@H](O)[C@@H](O[C@H]3O[C@H](CO)[C@@H](O)[C@H](N)[C@H]3O)[C@H](N)C[C@@H]2N)[C@H](O)[C@@H](O)[C@@H]1O [kanamycin A]
percentage of the 4096-member library bound to immobilized ligand [10]: ~4%

Compound: NC[C@H]1O[C@H](O[C@H]2[C@H](O)[C@@H](O[C@H]3O[C@H](CO)[C@@H](O)[C@H](N)[C@H]3O)[C@H](N)C[C@@H]2N)[C@H](N)[C@@H](O)[C@@H]1O [kanamycin B]
Kd [11]: 1100 nM
Kd [9]: 12 nM
Kd (IL 34; read-out: Kd): 5 nM

Compound: NC[C@H]1O[C@H](O[C@H]2[C@H](O)[C@@H](O)[C@H](N)C[C@@H]2N)[C@H](N)[C@@H](O)[C@@H]1O [neamine]
Kd [9]: > 500 nM
Kd (IL 34): much weaker

Kd [9]: 85 nM
fold weaker binding ([9]; relative to 21, kanamycin A and kanamycin B): approximately 9 fold
Kd (IL 34): much weaker
Compound: NC[C@H]1O[C@H](O[C@H]2[C@H](O)[C@@H](O[C@H]3O[C@H](CO)[C@@H](O)[C@H](N)[C@H]3O)[C@H](N)C[C@@H]2N)[C@H](N)C[C@@H]1O [tobramycin]
Kd [11]: 870 nM

Compound: IL 1: selected RNA internal loop (SEQ ID NO:12), 5′UU/3′UC 2×2 loop closed by A-U pairs (GGGAGAGGGUUUAAUUUUUACGAAAGUAACUAUUGGAUCCGCAAGG; listed as RNA, chemistry not given here)
IC50 [12]: 2.2 nM

Compound: IL 2: selected RNA internal loop (SEQ ID NO:13), 5′UU/3′UC 2×2 loop, one closing A-U pair in different orientation (GGGAGAGGGUUUAAUAUCUACGAAAGUAUUUAUUGGAUCCGCAAGG; listed as RNA, chemistry not given here)
IC50 [12]: 3.3 nM

Compound: IL 17: selected RNA internal loop (SEQ ID NO:14 series; SEQ ID NO:28), U replaced with C and closing pair GC (GGGAGAGGGUUUAAUCUUUACGAAAGUACCGAUUGGAUCCGCAAGG; listed as RNA, chemistry not given here)
fold weaker binding relative to IL 1 and IL 2 [12]: ~10 fold
